Assay results published in the NIST ThermoML archive (doi:10.1016/j.jct.2004.09.018).

What was measured:
[1] = molar heat capacity at constant pressure; details: 101.33 kPa
[2] = Molar enthalpy of transition or fusion; details: Crystal
[3] = Crystal

O=Cc1ccc([N+](=O)[O-])cc1[N+](=O)[O-] [2,4-dinitrobenzaldehyde]
[1]
Details | molar heat capacity at constant pressure [J/K/mol]
78.06 K, Crystal | 18.67
80 K, Crystal | 19.77
80.91 K, Crystal | 20.32
82.54 K, Crystal | 21.07
85.26 K, Crystal | 22.24
87.46 K, Crystal | 22.9
89.5 K, Crystal | 23.64
91.38 K, Crystal | 24.46
93.21 K, Crystal | 24.83
94.98 K, Crystal | 25.29
96.7 K, Crystal | 25.84
98.42 K, Crystal | 26.88
100.08 K, Crystal | 26.98
101.76 K, Crystal | 28.11
103.39 K, Crystal | 28.44
105 K, Crystal | 28.62
106.58 K, Crystal | 28.9
108.14 K, Crystal | 29.07
109.68 K, Crystal | 30.37
111.2 K, Crystal | 30.49
112.69 K, Crystal | 30.46
114.18 K, Crystal | 31.08
115.64 K, Crystal | 31.43
117.09 K, Crystal | 32.01
118.49 K, Crystal | 32.5
119.86 K, Crystal | 32.88
121.24 K, Crystal | 33.37
122.59 K, Crystal | 33.47
123.93 K, Crystal | 34.53
125.27 K, Crystal | 34.53
126.61 K, Crystal | 35.11
127.96 K, Crystal | 35.79
129.3 K, Crystal | 36.37
130.69 K, Crystal | 36.18
132.09 K, Crystal | 36.27
133.43 K, Crystal | 37.34
134.81 K, Crystal | 37.63
136.17 K, Crystal | 37.14
137.59 K, Crystal | 37.92
138.97 K, Crystal | 37.37
140.34 K, Crystal | 37.47
141.69 K, Crystal | 37.08
143.04 K, Crystal | 37.04
144.37 K, Crystal | 37.54
145.68 K, Crystal | 37.82
146.97 K, Crystal | 37.82
148.25 K, Crystal | 38.92
149.52 K, Crystal | 39.16
150.78 K, Crystal | 38.26
152.03 K, Crystal | 39.82
153.25 K, Crystal | 40.53
154.49 K, Crystal | 40.73
155.72 K, Crystal | 40.92
156.96 K, Crystal | 41.6
158.19 K, Crystal | 41.6
159.41 K, Crystal | 42.39
160.67 K, Crystal | 43.2
161.9 K, Crystal | 43.2
163.15 K, Crystal | 43.8
164.37 K, Crystal | 44.11
165.6 K, Crystal | 44.7
166.79 K, Crystal | 45.28
167.97 K, Crystal | 45.57
169.2 K, Crystal | 45.95
171.64 K, Crystal | 46.17
175.32 K, Crystal | 46.7
178.53 K, Crystal | 47.5
181.57 K, Crystal | 47.76
184.51 K, Crystal | 49.49
187.41 K, Crystal | 49.49
190.27 K, Crystal | 51.22
193.04 K, Crystal | 52.12
195.57 K, Crystal | 52.73
198.42 K, Crystal | 54.38
201.09 K, Crystal | 55.42
202.7 K, Crystal | 55.05
206.17 K, Crystal | 56.4
208.82 K, Crystal | 57.15
211.47 K, Crystal | 56.9
214.01 K, Crystal | 58.62
216.52 K, Crystal | 60.85
219.02 K, Crystal | 60.11
221.6 K, Crystal | 60.6
224.29 K, Crystal | 61.84
226.79 K, Crystal | 62.82
229.3 K, Crystal | 62.82
231.81 K, Crystal | 64.06
234.37 K, Crystal | 65.17
236.8 K, Crystal | 66.36
239.16 K, Crystal | 67.38
241.63 K, Crystal | 68.9
243.96 K, Crystal | 70.6
246.15 K, Crystal | 72.46
248.51 K, Crystal | 72.63
250.87 K, Crystal | 73.64
253.13 K, Crystal | 75.85
255.45 K, Crystal | 78.05
257.75 K, Crystal | 79.41
260 K, Crystal | 80.42
262.29 K, Crystal | 81.1
265.37 K, Crystal | 83.47
266.84 K, Crystal | 84.66
269.06 K, Crystal | 86.52
271.28 K, Crystal | 88.55
273.5 K, Crystal | 90.93
275.72 K, Crystal | 93.3
277.9 K, Crystal | 94.99
280.12 K, Crystal | 96.35
282.24 K, Crystal | 98.88
284.45 K, Crystal | 100.75
286.53 K, Crystal | 101.94
288.75 K, Crystal | 103.12
290.86 K, Crystal | 105.15
293.05 K, Crystal | 105.66
295.09 K, Crystal | 108.2
297.17 K, Crystal | 110.92
299.24 K, Crystal | 112.78
301.25 K, Crystal | 116
303.25 K, Crystal | 118.56
305.33 K, Crystal | 120.3
307.3 K, Crystal | 122.62
309.27 K, Crystal | 124.17
311.25 K, Crystal | 125.72
313.22 K, Crystal | 128.04
315.24 K, Crystal | 130.3
317.17 K, Crystal | 132.69
319.12 K, Crystal | 135.33
321.07 K, Crystal | 136.59
322.98 K, Crystal | 138.88
324.91 K, Crystal | 141.63
326.82 K, Crystal | 144.41
328.67 K, Crystal | 147.92
330.55 K, Crystal | 151.7
332.43 K, Crystal | 154.77
334.19 K, Crystal | 158.54
335.92 K, Crystal | 161.76
337.65 K, Crystal | 165.54
339.38 K, Crystal | 169.32
341.03 K, Crystal | 173.09
348.1 K, Liquid | 300.29
349.69 K, Liquid | 307.08
351.29 K, Liquid | 313.48
352.84 K, Liquid | 317.48
354.37 K, Liquid | 327.47
355.87 K, Liquid | 334.28
357.34 K, Liquid | 342.27
358.75 K, Liquid | 344.27
360.22 K, Liquid | 349.07
361.51 K, Liquid | 354.26
362.75 K, Liquid | 357.86
363.93 K, Liquid | 367.87
365.07 K, Liquid | 373.86
366.13 K, Liquid | 381.06
367.12 K, Liquid | 389.86

Details | Molar enthalpy of transition or fusion [kJ/mol] | Triple point temperature [K]
[2] | 21.2 | –
[3] | – | 344.91
